From the supplement of paper PMC10307832

Assays:
Test in all cases: relative viability (nuclei count vs DMSO), 5 days (fraction); higher = more cells survive
KN-93 + Bortezomib = compound: CN(C/C=C/C1=CC=C(C=C1)Cl)CC2=CC=CC=C2N(CCO)S(=O)(=O)C3=CC=C(C=C3)OC [KN-93] + CC(C)C[C@H](NC(=O)[C@H](Cc1ccccc1)NC(=O)c1cnccn1)B(O)O [Bortezomib] (partner 0.002 µM)
Summary of the method: (§1)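 Values are medians from duplicate plates. Each reflects relative viability, defined as the nuclei count of treated wells over that of vehicle wells. Lung cancer cell lines in 1536-well plates were pin-tool dosed one day after seeding with one drug alone or with a fixed anchor-drug dose plus five library-drug doses (not always all listed) in √10 steps, then fixed, stained and imaged at 4× after 5 days.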

KN-93 + AZD7762 = compound: CN(C/C=C/C1=CC=C(C=C1)Cl)CC2=CC=CC=C2N(CCO)S(=O)(=O)C3=CC=C(C=C3)OC [KN-93] + NC(=O)Nc1cc(-c2cccc(F)c2)sc1C(=O)N[C@H]1CCCNC1 [AZD7762] (partner 0.2 µM)
Summary of the method: as §1

KN-93 + Phenformin = compound: CN(C/C=C/C1=CC=C(C=C1)Cl)CC2=CC=CC=C2N(CCO)S(=O)(=O)C3=CC=C(C=C3)OC [KN-93] + N=C(N)NC(=N)NCCc1ccccc1 [Phenformin] (partner 250 µM)
Summary of the method: as §1

KN-93 + Decitabine = compound: CN(C/C=C/C1=CC=C(C=C1)Cl)CC2=CC=CC=C2N(CCO)S(=O)(=O)C3=CC=C(C=C3)OC [KN-93] + Nc1ncn([C@H]2C[C@H](O)[C@@H](CO)O2)c(=O)n1 [Decitabine] (partner 2 µM)
Summary of the method: as §1

KN-93 + Linsitinib = compound: CN(C/C=C/C1=CC=C(C=C1)Cl)CC2=CC=CC=C2N(CCO)S(=O)(=O)C3=CC=C(C=C3)OC [KN-93] + C[C@]1(O)C[C@@H](c2nc(-c3ccc4ccc(-c5ccccc5)nc4c3)c3c(N)nccn32)C1 [Linsitinib] (partner 1 µM)
Summary of the method: as §1

Row | Cell Line | relative viability (KN-93 + Bortezomib; first compound 0.08 µM) | relative viability (KN-93 + Bortezomib; first compound 0.253 µM) | relative viability (KN-93 + Bortezomib; first compound 2.53 µM) | relative viability (KN-93 + Bortezomib; first compound 8 µM) | relative viability (KN-93 + AZD7762; first compound 0.08 µM) | relative viability (KN-93 + AZD7762; first compound 0.253 µM) | relative viability (KN-93 + AZD7762; first compound 2.53 µM) | relative viability (KN-93 + AZD7762; first compound 8 µM) | relative viability (KN-93 + Phenformin; first compound 0.08 µM) | relative viability (KN-93 + Phenformin; first compound 0.253 µM) | relative viability (KN-93 + Phenformin; first compound 2.53 µM) | relative viability (KN-93 + Phenformin; first compound 8 µM) | relative viability (KN-93 + Decitabine; first compound 0.08 µM) | relative viability (KN-93 + Decitabine; first compound 0.253 µM) | relative viability (KN-93 + Decitabine; first compound 2.53 µM) | relative viability (KN-93 + Decitabine; first compound 8 µM) | relative viability (KN-93 + Linsitinib; first compound 0.08 µM) | relative viability (KN-93 + Linsitinib; first compound 0.253 µM) | relative viability (KN-93 + Linsitinib; first compound 2.53 µM) | relative viability (KN-93 + Linsitinib; first compound 8 µM)
1 | NCI-H1915 | 0.929 | 1.31 | 1.1 | 0.54 | 0.67 | 0.735 | 0.632 | 0.671 | 0.382 | 0.421 | 0.408 | 0.359 | 0.274 | 0.261 | 0.26 | 0.246 | 1.03 | 1.16 | 1.12 | 1.03
2 | NCI-H1975 | 0.334 | 0.38 | 0.33 | 0.249 | 0.664 | 0.599 | 0.72 | 0.558 | 0.423 | 0.463 | 0.456 | 0.4 | 0.389 | 0.361 | 0.412 | 0.272 | 0.789 | 0.943 | 0.992 | 0.546
3 | NCI-H1993 | 0.836 | 1.02 | 1.2 | 0.523 | 0.608 | 0.654 | 0.708 | 0.586 | 0.619 | 0.519 | 0.512 | 0.574 | 0.573 | 0.548 | 0.579 | 0.601 | 0.728 | 0.633 | 0.837 | 0.655
4 | NCI-H2085 | 0.909 | 1.12 | 1.16 | 0.663 | 0.883 | 1.12 | 1.06 | 0.592 | 0.698 | 0.796 | 0.815 | 0.655 | 0.581 | 0.502 | 0.516 | 0.496 | 0.782 | 0.967 | 0.929 | 0.633
5 | NCI-H2087 | 0.759 | 1.24 | 0.874 | 0.33 | 0.821 | 1.61 | 1.16 | 1.04 | 0.427 | 0.648 | 0.57 | 0.442 | 0.28 | 0.235 | 0.273 | 0.155 | 0.941 | 0.905 | 0.824 | 0.43
6 | NCI-H2126 | 1.07 | 1.08 | 1.19 | 1.09 | 0.939 | 1.01 | 1.03 | 0.974 | 0.524 | 0.483 | 0.502 | 0.481 | 0.51 | 0.522 | 0.656 | 0.475 | 0.785 | 0.673 | 0.713 | 0.683
7 | NCI-H2347 | 1.27 | 0.741 | 0.828 | 0.745 | 0.621 | 0.861 | 0.885 | 0.498 | 0.517 | 0.376 | 0.55 | 0.362 | 0.57 | 0.617 | 0.643 | 0.539 | 1.07 | 0.922 | 0.918 | 0.797
8 | NCI-H2405 | 1.01 | 0.978 | 1.09 | 0.728 | 0.735 | 0.859 | 0.806 | 0.555 | 0.379 | 0.479 | 0.718 | 0.354 | 0.741 | 0.736 | 0.77 | 0.593 | 0.984 | 0.908 | 0.924 | 0.564
9 | NCI-H3122 | 1.06 | 1.07 | 1.13 | 1.03 | 0.892 | 1.11 | 1.12 | 0.934 | 0.384 | 0.381 | 0.901 | 0.326 | 0.364 | 0.398 | 0.359 | 0.367 | 1.08 | 0.803 | 1.23 | 0.882
10 | PC-3 [JPC-3] | 0.724 | 0.97 | 0.982 | 0.579 | 0.813 | 0.757 | 0.781 | 0.714 | 0.437 | 0.46 | 0.494 | 0.441 | 0.786 | 0.781 | 0.919 | 0.739 | 1.02 | 1.02 | 0.995 | 0.876
11 | PC-14 | 0.686 | 0.899 | 0.933 | 0.734 | 0.331 | 0.316 | 0.527 | 0.343 | 0.593 | 0.685 | 0.596 | 0.547 | 0.205 | 0.2 | 0.244 | 0.194 | 0.855 | 0.976 | 1.07 | 0.824
12 | RERF-LC-KJ | 1.07 | 1.2 | 1.09 | 0.928 | 0.707 | 0.898 | 1 | 0.753 | 0.365 | 0.409 | 0.462 | 0.307 | 0.627 | 0.753 | 0.722 | 0.346 | 0.82 | 0.82 | 0.967 | 0.611
